Measurements as given in PubChem BioAssay AID2060337 (Molecular Pharmacology Branch, DTP, NCI, 2025).
Where “and” joins values, the source holds several entries; their conditions need not be identical. Equal entries are not always repeated.

System: 832693-133-R-J1-PDC multi-cell spheroids, viability
Test: Anticancer human tumor 832693-133-R-J1-PDC patient-derived head and neck squamous carcinoma cell line growth inhibition [IpAb]
Details: for viability, T/C: stronger effect = lower value
Source text: Combinatorial screen of targeted agents with ipatasertib and abemaciclib in multi-cell type tumor spheroids
A high-throughput screen of multi-cell type tumor spheroids was designed to identify active combinations of targeted small molecules and ipatasertib or abemaciclib. Complex spheroids include a stromal component modeled by human endothelial cells (HUVEC) and fibroblasts modeled by human mesenchymal stem cells (MSCs). The concentration ranges selected for each drug and investigational agent were based upon clinically achievable concentrations if the clinical Cmax of the agent was known.
Compounds. The drugs and investigational agents: ipatasertib (NSC767898), abemaciclib(NSC768073), selumetinib (NSC741078), trametinib (758246), adavosertib (NSC754352), everolimus (NSC733504), sapanisertib (NSC764658), vemurafenib (NSC761431), venetoclax (NSC766270), copanlisib (NSC809693), apelisib (NSC765974), palbociblib (NSC758247), vemurafenib (NSC761431), dabrafenib (NSC764134), ravoxertinib (NSC781343), BMS-387032 (NSC767048), sotorasib (NSC818433), talazoparib (NSC767125) and afursertib (NSC778305), were obtained from the National Cancer Institute (NCI) Developmental Therapeutics Program Chemical Repository. The FDA-approved anticancer drug set is available from the NCI Developmental Therapeutics Program. […] The stock solutions were prepared in dimethyl sulfoxide (DMSO, Sigma-Aldrich, St. Louis, MO, cat. D2650) at 800-fold the tested concentration and stored at -70 degrees C prior to their use. All drugs and investigational agents were tested over a range starting from a high concentration at or near the clinical Cmax and decreasing in half-log increments. If the clinical Cmax for an agent had not been determined, the highest concentration tested was 10 microM.
NCI60 Cell Culture. NCI60 cell lines were obtained from the NCI Developmental Therapeutics Program Tumor Repository. For each lot of cells, the Repository performed Applied Biosystems AmpFLSTR Identifiler testing with PCR amplification to confirm consistency with the published Identifier STR profile for each cell line. Cells were kept in continuous culture for no more than 20 passages. The optimal seeding densities for each of the cell lines at each time point assessed were determined prior to performing the concentration response studies. Briefly, the NCI60 human tumor lines were grown as monolayers in RPMI 1640 medium supplemented with 10% FBS and 2 mmol/L L-glutamine.
An additional 9 lines were from the NCI60 cell line panel including MDA-MB-231 breast carcinoma, MDA-MB-468 breast carcinoma, MCF7 breast carcinoma, Hs578T breast carcinoma, MALME-3M melanoma, SK-MEL-2 melanoma, SK-OV-3 ovarian carcinoma, DU-145 prostate carcinoma, PC-3 prostate carcinoma, all cell lines along with major genetic alterations are listed on Table 2. Pooled donor human umbilical vein endothelial cells (HUVEC, Lonza, cat. CC-2519) and human mesenchymal stem cells (hMSC, Lonza, cat. PT-2501) were purchased from Lonza (Walkersville, MD).
PDMR cell lines were grown in complete medium (DC medium): Dulbecco's modified Eagle's medium (DMEM)/F12 supplemented with 5% fetal bovine serum (FBS), 2 mM L-glutamine, 100 U/mL penicillin and 100 µg/ml streptomycin, 0.4 µg/ml hydrocortisone, 10 ng/ml epidermal growth factor (EGF) recombinant human protein, 24 µg/mL adenine, and 0.1 mg/mL primocin. During culture from frozen stock vials, PDMR cells were cultured in the same medium containing 10 µM Y-27632 (see Table 3). The PDCs were cultured in complete DMEM/F12 media without 10 microM Y-27632 dihydrochloride for at least two passages prior to the screen. The pooled donor HUVEC and hMSC were cultured in endothelial cell growth medium 2 (PromoCell, Heidelberg, Germany, cat. C-22011) and mesenchymal stem cell growth medium 2 (PromoCell, cat. C-28009), respectively. For all experiments, HUVEC and hMSC were used at passages </=5.
[…]
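Also: spheroids exposed to the drugs for one week before the viability readout.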
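For viability, T/C in this document: 100% = DMSO vehicle control wells.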

Row | IC50 (curve of compound) | SMILES | viability, T/C (compound 0.0316 µM) | viability, T/C (compound 0.1 µM) | viability, T/C (compound 0.316 µM) | viability, T/C (compound 1 µM) | viability, T/C (compound 3.16 µM) | viability, T/C (compound 10 µM) | viability, T/C (compound 0.01 µM) | other results
1 | > 10000 nM | C=CC(=O)N1CCN(c2nc(=O)n(-c3c(C)ccnc3C(C)C)c3nc(-c4c(O)cccc4F)c(F)cc23)C(C)C1 (stereo unspecified) | 105% and 95% | 108% and 101% | 111% and 103% | 114% and 115% | 122% and 110% | 100% and 98.5% | – | –
2 | 208 nM and 221 nM | C=CCn1c(=O)c2cnc(Nc3ccc(N4CCN(C)CC4)cc3)nc2n1-c1cccc(C(C)(C)O)n1 | 94% and 91.3% | 79.8% and 71.9% | 32.5% and 35.4% | 27% and 31.5% | 25.9% and 28.6% | 12.5% and 11.7% | – | –
3 | > 300 nM | CC(=O)c1c(C)c2cnc(Nc3ccc(N4CCNCC4)cn3)nc2n(C2CCCC2)c1=O | – | – | – | – | – | – | – | viability, T/C (compound 0.000949 µM): 87.4% and 105%; viability, T/C (compound 0.003 µM): 87.3% and 96.4%; viability, T/C (compound 0.00949 µM): 79.2% and 84.6%; viability, T/C (compound 0.03 µM): 66.9% and 69.8%; viability, T/C (compound 0.0949 µM): 69.9% and 64.3%; viability, T/C (compound 0.3 µM): 51% and 55.9%
4 | 570 nM and 626 nM | CC(C)(C)c1cnc(CSc2cnc(NC(=O)C3CCNCC3)s2)o1 | – | – | – | – | – | – | – | viability, T/C (compound 0.00949 µM): 115% and 100%; viability, T/C (compound 0.03 µM): 127%; viability, T/C (compound 0.0949 µM): 143% and 156%; viability, T/C (compound 0.3 µM): 111% and 164%; viability, T/C (compound 0.949 µM): 1.31% and 0.89%; viability, T/C (compound 3 µM): 1.26% and 1.3%
5 | – | CC(C)NCC(C(=O)N1CCN(c2ncnc3c2C(C)CC3O)CC1)c1ccc(Cl)cc1 (stereo unspecified) | – | 89.5% [middle of 13 runs] | 78.2% [middle of 12 runs] | 58% [middle of 13 runs] | 55.3% [middle of 13 runs] | 58.4% [middle of 13 runs] | – | IC50 (compound alone, run of 05/18/2021): > 10000 nM and 6660 nM and 1870 nM
6 | > 100 nM | CC(C)n1nc(-c2ccc3oc(N)nc3c2)c2c(N)ncnc21 | 67.5% and 60.2% | 61.8% and 52.7% | – | – | – | – | 76.9% and 68.7% | viability, T/C (compound 0.000316 µM): 94.6% and 91.2%; viability, T/C (compound 0.001 µM): 89.4% and 88.7%; viability, T/C (compound 0.00316 µM): 86.9% and 76%
7 | 8780 nM and 5330 nM | CC1(C)CCC(CN2CCN(c3ccc(C(=O)NS(=O)(=O)c4ccc(NCC5CCOCC5)c([N+](=O)[O-])c4)c(Oc4cnc5[nH]ccc5c4)c3)CC2)=C(c2ccc(Cl)cc2)C1 | 98.5% and 113% | 98.3% and 122% | 106% and 107% | 108% and 102% | 110% and 90.5% | – | – | –
8 | 6160 nM and 6680 nM | CCCS(=O)(=O)Nc1ccc(F)c(C(=O)c2c[nH]c3ncc(-c4ccc(Cl)cc4)cc23)c1F | 102% and 106% | 107% and 108% | 99.7% and 108% | 95.7% and 90.7% | 67.7% and 69.2% | 37% and 39.9% | – | –
9 | – | CCN1CCN(Cc2ccc(Nc3ncc(F)c(-c4cc(F)c5nc(C)n(C(C)C)c5c4)n3)nc2)CC1 | 82.1% [middle of 13 runs] | 63.8% [middle of 13 runs] | 57.4% [middle of 13 runs] | 59.1% [middle of 13 runs] | – | – | 97.5% [middle of 13 runs] | –
10 | 15.5 nM and 18.8 nM | COc1c(OCCCN2CCOCC2)ccc2c3n(c(=NC(=O)c4cnc(N)nc4)nc12)CCN3 | 21.3% and 29.8% | 9.21% and 9.49% | 4.67% and 4.86% | 4.72% and 4.34% | – | – | 67.5% and 74.3% | viability, T/C (compound 0.00316 µM): 93.8% and 99%
